Molecular target: T1, PROBABLE TRANSMEMBRANE CARBONIC ANHYDRASE (CARBONATE DEHYDRATASE) (CARBONIC DEHYDRATASE) (Mycobacterium tuberculosis, UniProt P96878)
T1 sequence (P96878 whole entry): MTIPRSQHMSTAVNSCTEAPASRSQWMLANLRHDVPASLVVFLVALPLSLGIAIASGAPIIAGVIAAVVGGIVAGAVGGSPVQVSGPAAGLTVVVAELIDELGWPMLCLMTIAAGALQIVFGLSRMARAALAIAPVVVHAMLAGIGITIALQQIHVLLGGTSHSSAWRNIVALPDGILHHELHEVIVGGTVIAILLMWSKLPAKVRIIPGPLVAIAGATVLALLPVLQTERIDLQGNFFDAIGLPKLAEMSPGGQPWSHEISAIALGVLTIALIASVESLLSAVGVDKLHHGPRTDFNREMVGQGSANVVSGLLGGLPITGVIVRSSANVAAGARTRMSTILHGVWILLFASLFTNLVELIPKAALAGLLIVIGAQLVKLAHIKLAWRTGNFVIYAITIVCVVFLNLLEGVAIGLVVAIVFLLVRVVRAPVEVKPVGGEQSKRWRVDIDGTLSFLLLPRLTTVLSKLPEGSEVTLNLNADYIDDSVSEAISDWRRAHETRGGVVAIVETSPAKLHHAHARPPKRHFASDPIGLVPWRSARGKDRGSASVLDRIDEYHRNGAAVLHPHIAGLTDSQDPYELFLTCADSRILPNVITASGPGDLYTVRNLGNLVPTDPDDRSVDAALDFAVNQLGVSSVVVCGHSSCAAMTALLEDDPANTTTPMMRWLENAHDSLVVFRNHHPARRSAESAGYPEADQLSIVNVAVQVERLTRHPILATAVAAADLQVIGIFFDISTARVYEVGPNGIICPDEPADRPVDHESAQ

Question: How did the Ki turn out when `Nc1ccc(S(N)(=O)=O)cc1` [SULFANILAMIDE] was run?
Answer: 6.24 µM

— ChEMBL document CHEMBL1641603, “Inhibition of β-carbonic anhydrases with ureido-substituted benzenesulfonamides” (Bioorg Med Chem Lett, 2011)
